The values that follow come from the RepoRT retention time repository (doi:10.1038/s41586-021-03707-9).

Data set [1] can be described thus: Waters ACQUITY UPLC BEH C18, 100 × 2.1 mm, 1.7 µm, 40 °C, 0.28 mL/min, estimated dead time 0.63 min; A: water + 6.5 mM ammonium hydroxide; B: methanol + 6.5 mM ammonium hydroxide; gradient (min/%B) 0/0.5 4/70 4.5/98 5.4/98. To be noted: stereoisomer not certain.
Data set [2] can be described thus: RP, Waters ACQUITY UPLC HSS C18, 100 × 2.1 mm, 1.7 µm, 40 °C, 0.35 mL/min, estimated dead time 0.63 min; A: water + 0.1% formic acid; B: methanol + 0.1% formic acid; gradient (min/%B) 0/0.5 4/70 4.5/98 5.4/98. Particulars: stereoisomer not certain.

Take `O=C(O)c1ccc2ccccc2n1`: the figures for the LC retention time in data set [1] and in data set [2] were 3.07 min and 3.21 min, respectively.

Turning to `O=C(O)Cc1cc(O)ccc1O`, the values for the LC retention time in data set [1] and in data set [2] were 1.49 min and 2.23 min, respectively.

On to `Nc1nc2ncc(CNc3ccc(C(=O)NC(CCC(=O)O)C(=O)O)cc3)nc2c(=O)[nH]1` (configuration not stated), for which the LC retention time in data set [1] is 0.847 min; in data set [2] it was 3.01 min.

Consider `CC1CNC(=O)NC1=O` (configuration not stated), for which the results for the LC retention time in data set [1] and in data set [2] were 1.94 min and 1.87 min, respectively.

Turning to `COc1cccc(OC)c1C(=O)O`, the LC retention time is 2.18 min in data set [1] and 3.65 min in data set [2].

Turning to `O=C(O)C(O)c1ccc(O)cc1` (configuration not stated), the LC retention time in data set [1] is 0.823 min; in data set [2], 3.64 min.

For the molecule `OCC1OC(OC2C(CO)OC(O)(CO)C2O)C(O)C(O)C1O` (configuration not stated), the LC retention time in data set [1] was 0.859 min; in data set [2] it was 0.799 min.

Turning to `CCOC(=O)c1ccc(N)cc1`, the LC retention time in data set [1] was 4.61 min; in data set [2], 4.4 min.

Take `CC12CCC(=O)C=C1CCC1C2C(=O)CC2(C)C1CCC2(O)C(=O)CO` (configuration not stated): the LC retention time was 5.05 min in data set [1] and 4.87 min in data set [2].

For `NC1(C(=O)O)CC1`, the LC retention time was 0.778 min in data set [1] and 0.779 min in data set [2].

For `COC(=O)C(Cc1ccccc1)NC(=O)C(N)CC(=O)O` (configuration not stated), the values for the LC retention time in data set [1] and in data set [2] were 3.67 min and 3.56 min, respectively.

Regarding `O=C1CC(C(=O)O)NC(=O)N1` (configuration not stated), the LC retention time in data set [1] is 0.767 min; in data set [2] it was 0.995 min.

For the molecule `O=C(NO)c1ccccc1O`, the LC retention time in data set [1] is 2.15 min; in data set [2], 3.04 min.

For `OCc1ccccc1OC1OC(CO)C(O)C(O)C1O` (configuration not stated), the LC retention time in data set [1] was 2.89 min; in data set [2], 2.82 min.

In the case of `NC(N)=NCC(=O)O`, the LC retention time in data set [1] is 0.801 min; in data set [2], 0.759 min.

As to `CSCC1OC(n2cnc3c(N)ncnc32)C(O)C1O` (configuration not stated), the LC retention time is 3.51 min in data set [1] and 2.85 min in data set [2].

With `CC(C)NCC(O)COc1ccc(CC(N)=O)cc1` (configuration not stated), the LC retention time in data set [1] is 3.57 min; in data set [2] it was 2.35 min.

With `C[N+](C)(C)CCCC(=O)[O-]`, the figures for the LC retention time in data set [1] and in data set [2] were 0.803 min and 0.814 min, respectively.

Regarding `Nc1ccn(C2OC(CO)C3OP(=O)(O)OC32)c(=O)n1` (configuration not stated), the figures for the LC retention time in data set [1] and in data set [2] were 0.926 min and 0.912 min, respectively.

With `O=c1ccn(C2CC(O)C(COP(=O)(O)O)O2)c(=O)[nH]1` (configuration not stated), the results for the LC retention time in data set [1] and in data set [2] were 0.813 min and 1.35 min, respectively.

Regarding `OCC1OC(OCC2OC(OC3(CO)OC(CO)C(O)C3O)C(O)C(O)C2O)C(O)C(O)C1O` (configuration not stated), the LC retention time in data set [1] is 1.05 min; in data set [2], 0.835 min.

Regarding `CCN(CC)CCNC(=O)c1ccc(N)cc1`, the LC retention time in data set [1] is 3.81 min; in data set [2], 2.01 min.

Consider `Nc1nc2c(ncn2C2OC(CO)C(O)C2O)c(=O)[nH]1` (configuration not stated), for which the LC retention time in data set [1] was 1.98 min; in data set [2] it was 1.92 min.

In the case of `CC(=O)NC(Cc1ccccc1)C(=O)O` (configuration not stated), the LC retention time in data set [1] was 2.99 min; in data set [2] it was 3.99 min.

Consider `NC(=O)CCC(NC(=O)Cc1ccccc1)C(=O)O` (configuration not stated), for which the LC retention time is 2.69 min in data set [1] and 3.27 min in data set [2].

`CC(=O)NC(C)C(=O)O` (configuration not stated): the LC retention time in data set [1] is 0.918 min; in data set [2] it was 1.77 min.

On to `OCCc1c[nH]c2ccccc12`, for which the LC retention time in data set [1] is 4.36 min; in data set [2], 4.22 min.

`COc1ccc(OC)c(C(O)C(C)N)c1` (configuration not stated): the LC retention time in data set [1] was 3.99 min; in data set [2], 3.14 min.

For `O=c1ccn(C2CC(O)C(CO)O2)c(=O)[nH]1` (configuration not stated), the values for the LC retention time in data set [1] and in data set [2] were 1.87 min and 1.85 min, respectively.

As for `CC(C)(N)C(=O)O`, the LC retention time in data set [1] is 0.806 min; in data set [2] it was 0.821 min.

For the molecule `Cn1cnc2c(ncn2C2OC(CO)C(O)C2O)c1=N` (configuration not stated), the LC retention time in data set [1] was 3.02 min; in data set [2], 2.33 min.

Regarding `CC(=O)OC(CC(=O)[O-])C[N+](C)(C)C` (configuration not stated), the LC retention time is 0.849 min in data set [1] and 0.864 min in data set [2].

For `CC(=O)NC(CCCCN)C(=O)O` (configuration not stated), the LC retention time is 0.916 min in data set [1] and 0.903 min in data set [2].

As for `NC(=O)Cc1c[nH]c2ccccc12`, the LC retention time is 3.63 min in data set [1] and 3.52 min in data set [2].

For the molecule `CC(=O)OCC(N)C(=O)O` (configuration not stated), the LC retention time in data set [1] was 0.876 min; in data set [2], 0.854 min.

Turning to `Nc1ccccc1S(=O)(=O)O`, the LC retention time was 1.68 min in data set [1] and 1.79 min in data set [2].

`O=C(O)c1ccc(CO)o1`: the results for the LC retention time in data set [1] and in data set [2] were 0.87 min and 2.36 min, respectively.

On to `CNC(=C[N+](=O)[O-])NCCSCc1ccc(CN(C)C)o1`, for which the results for the LC retention time in data set [1] and in data set [2] were 4.28 min and 2.32 min, respectively.

In the case of `Nc1ccn(C2OC(CO)C(O)C2O)c(=O)n1` (configuration not stated), the LC retention time in data set [1] was 1.49 min; in data set [2], 1.1 min.

As for `OC1C2COC(O2)C(O)C1O` (configuration not stated), the LC retention time in data set [1] is 0.853 min; in data set [2], 0.85 min.

As to `NC(C(=O)O)c1ccc(O)cc1` (configuration not stated), the results for the LC retention time in data set [1] and in data set [2] were 0.818 min and 0.808 min, respectively.

In the case of `CCC(C)(O)C(=O)O` (configuration not stated), the LC retention time in data set [1] was 0.857 min; in data set [2], 2.87 min.

On to `O=C1CCCc2[nH]ccc21`, for which the figures for the LC retention time in data set [1] and in data set [2] were 3.04 min and 2.95 min, respectively.

`CC(=O)NCCc1c[nH]c2ccc(O)cc12`: the figures for the LC retention time in data set [1] and in data set [2] were 3.09 min and 3.01 min, respectively.

Take `O=C(O)CCCc1c[nH]c2ccccc12`: the figures for the LC retention time in data set [1] and in data set [2] were 3.66 min and 4.92 min, respectively.

As for `O=c1ccc2cc(OC3OC(CO)C(O)C(O)C3O)c(O)cc2o1` (configuration not stated), the LC retention time is 2.17 min in data set [1] and 2.78 min in data set [2].

`CC(=O)NCC(=O)O`: the LC retention time in data set [1] was 0.78 min; in data set [2], 1.13 min.

As for `CC(=O)NC(CC(N)=O)C(=O)O` (configuration not stated), the LC retention time is 0.76 min in data set [1] and 0.981 min in data set [2].

On to `CC(=O)NCCCCN`, for which the LC retention time is 1.29 min in data set [1] and 0.91 min in data set [2].

`CSCCC(NC=O)C(=O)O` (configuration not stated): the LC retention time was 1.75 min in data set [1] and 2.78 min in data set [2].

Turning to `O=C(O)c1ccc(O)cc1`, the results for the LC retention time in data set [1] and in data set [2] were 0.892 min and 3.1 min, respectively.

`NC(=O)c1ncn(C2OC(CO)C(O)C2O)c1N` (configuration not stated): the LC retention time in data set [1] is 1.77 min; in data set [2] it was 1.58 min.

For `CC1=CC(=O)NS(=O)(=O)O1`, the values for the LC retention time in data set [1] and in data set [2] were 1.78 min and 2.12 min, respectively.

For `O=C(O)Cc1c[nH]c2ccccc12`, the figures for the LC retention time in data set [1] and in data set [2] were 2.51 min and 4.21 min, respectively.

As to `O=C(O)CN(CCO)CCO`, the values for the LC retention time in data set [1] and in data set [2] were 0.874 min and 0.765 min, respectively.

As to `COc1cc(O)cc(OC)c1`, the LC retention time in data set [1] is 4.22 min; in data set [2] it was 4.13 min.

For `O=C(O)C1CCCCN1` (configuration not stated), the LC retention time is 1.14 min in data set [1] and 1.15 min in data set [2].

`Cc1cccc(C(=O)O)c1O`: the figures for the LC retention time in data set [1] and in data set [2] were 3.44 min and 5.29 min, respectively.

Consider `Cn1c(=O)[nH]c2[nH]c(=O)n(C)c2c1=O`, for which the figures for the LC retention time in data set [1] and in data set [2] were 1.81 min and 2.78 min, respectively.

In the case of `Cc1cn(C2CC(O)C(COP(=O)(O)O)O2)c(=O)[nH]c1=O` (configuration not stated), the values for the LC retention time in data set [1] and in data set [2] were 0.908 min and 1.76 min, respectively.

Consider `O=C1OC(C(O)CO)C(O)C1O` (configuration not stated), for which the LC retention time in data set [1] was 0.822 min; in data set [2] it was 0.804 min.

For the molecule `Nc1ncnc2c1ncn2C1OC(CO)C2OP(=O)(O)OC21` (configuration not stated), the LC retention time in data set [1] was 2.11 min; in data set [2] it was 1.68 min.

`[2H]c1[nH]c2c([2H])c([2H])c([2H])c([2H])c2c1CC(=O)O`: the LC retention time is 2.49 min in data set [1] and 4.22 min in data set [2].

On to `O=C(O)c1ccnc2ccccc12`, for which the LC retention time was 2.09 min in data set [1] and 1.91 min in data set [2].

Take `COc1cc(C(=O)O)cc(OC)c1O`: the LC retention time in data set [1] was 1.59 min; in data set [2], 3.43 min.

Consider `CCC(O)(CC)C(=O)O`, for which the LC retention time is 1.31 min in data set [1] and 3.56 min in data set [2].

For `O=C(O)CNC(=O)c1cccnc1`, the LC retention time in data set [1] is 1.67 min; in data set [2], 1.74 min.

For the molecule `Cn1c(=O)c2[nH]c(=O)[nH]c2n(C)c1=O`, the results for the LC retention time in data set [1] and in data set [2] were 1.92 min and 2.47 min, respectively.

In the case of `NCCCCC(=O)O`, the LC retention time in data set [1] was 0.812 min; in data set [2], 0.909 min.

Regarding `Cc1ncc(CO)c(C=O)c1O`, the LC retention time is 1.77 min in data set [1] and 0.85 min in data set [2].

Take `Oc1ccc2[nH]ccc2c1`: the LC retention time in data set [1] was 2.98 min; in data set [2], 2.9 min.

`O=C1OC(CO)C(O)C(O)C1O` (configuration not stated): the LC retention time is 0.906 min in data set [1] and 0.795 min in data set [2].

As for `Nc1cc(O)cc(C(=O)O)c1`, the LC retention time is 0.812 min in data set [1] and 1.32 min in data set [2].

For `Oc1cccc(O)c1O`, the LC retention time in data set [1] is 1.93 min; in data set [2], 1.94 min.

In the case of `O=C(O)CCCCCCCCCO`, the figures for the LC retention time in data set [1] and in data set [2] were 3.96 min and 5.06 min, respectively.

Turning to `Nc1ncnc2c1ncn2C1OC2COP(=O)(O)OC2C1O` (configuration not stated), the LC retention time in data set [1] is 2.32 min; in data set [2], 1.95 min.
